Source: patent US5654411A, “Process for preparing 4-deoxyerythromycin derivatives” (Abbott Laboratories, priority 1995, dated 1997)
Converted amounts (≈) assume the structure as drawn.

What was measured:
[1] = tested on: Acinetobacter calcoaceticus CMX 669; test: Antibacterial activity (MIC), agar dilution method; format: cell-based; details: unit assumed
Description: (§1) Compounds of the invention were next tested for antibacterial potency, such activity being regarded as an undesirable side effect if prokinetic therapy. Assays were conducted using methodology well-known in the art (the agar dilution method).

[2] = tested on: Enterobacter aerogenes ATCC 13048; test: Antibacterial activity (MIC), agar dilution method; format: cell-based; details: unit assumed
Description: as §1

[3] = tested on: Enterococcus faecium ATCC 8043; test: Antibacterial activity (MIC), agar dilution method; format: cell-based; details: unit assumed
Description: as §1

Escherichia coli DC-2 = test: Antibacterial activity (MIC), agar dilution method; format: cell-based; details: unit assumed
Description: as §1

Escherichia coli H560 = test: Antibacterial activity (MIC), agar dilution method; format: cell-based; details: unit assumed
Description: as §1

Escherichia coli JUHL = test: Antibacterial activity (MIC), agar dilution method; format: cell-based; details: unit assumed
Description: as §1

Escherichia coli KNK 437 = test: Antibacterial activity (MIC), agar dilution method; format: cell-based; details: unit assumed
Description: as §1

Escherichia coli SS = test: Antibacterial activity (MIC), agar dilution method; format: cell-based; details: unit assumed
Description: as §1

[4] = tested on: Klebsiella pneumoniae ATCC 8045; test: Antibacterial activity (MIC), agar dilution method; format: cell-based; details: unit assumed
Description: as §1

[5] = tested on: Micrococcus luteus ATCC 4698; test: Antibacterial activity (MIC), agar dilution method; format: cell-based; details: unit assumed
Description: as §1

[6] = tested on: Micrococcus luteus ATCC 9341; test: Antibacterial activity (MIC), agar dilution method; format: cell-based; details: unit assumed
Description: as §1

[7] = tested on: Providencia stuartii CMX 640; test: Antibacterial activity (MIC), agar dilution method; format: cell-based; details: unit assumed
Description: as §1

[8] = tested on: Pseudomonas aeruginosa A5007; test: Antibacterial activity (MIC), agar dilution method; format: cell-based; details: unit assumed
Description: as §1

[9] = tested on: Pseudomonas aeruginosa BMH10; test: Antibacterial activity (MIC), agar dilution method; format: cell-based; details: unit assumed
Description: as §1

[10] = tested on: Pseudomonas aeruginosa DPHD-2862; test: Antibacterial activity (MIC), agar dilution method; format: cell-based; details: unit assumed
Description: as §1

[11] = tested on: Pseudomonas aeruginosa DPHD-5263; test: Antibacterial activity (MIC), agar dilution method; format: cell-based; details: unit assumed
Description: as §1

[12] = tested on: Pseudomonas aeruginosa K799/61; test: Antibacterial activity (MIC), agar dilution method; format: cell-based; details: unit assumed
Description: as §1

[13] = tested on: Pseudomonas aeruginosa K799/WT; test: Antibacterial activity (MIC), agar dilution method; format: cell-based; details: unit assumed
Description: as §1

Pseudomonas cepacia 2961 = test: Antibacterial activity (MIC), agar dilution method; format: cell-based; details: unit assumed
Description: as §1

[14] = tested on: Staphylococcus aureus 1775; test: Antibacterial activity (MIC), agar dilution method; format: cell-based; details: unit assumed
Description: as §1

[15] = tested on: Staphylococcus aureus 642A; test: Antibacterial activity (MIC), agar dilution method; format: cell-based; details: unit assumed
Description: as §1

[16] = tested on: Staphylococcus aureus A-5278; test: Antibacterial activity (MIC), agar dilution method; format: cell-based; details: unit assumed
Description: as §1

[17] = tested on: Staphylococcus aureus A5177; test: Antibacterial activity (MIC), agar dilution method; format: cell-based; details: unit assumed
Description: as §1

[18] = tested on: Staphylococcus aureus ATCC 6538P; test: Antibacterial activity (MIC), agar dilution method; format: cell-based; details: unit assumed
Description: as §1

[19] = tested on: Staphylococcus aureus CMX 553; test: Antibacterial activity (MIC), agar dilution method; format: cell-based; details: unit assumed
Description: as §1

[20] = tested on: Staphylococcus aureus NCTC 10649; test: Antibacterial activity (MIC), agar dilution method; format: cell-based; details: unit assumed
Description: as §1

[21] = tested on: Staphylococcus epidermidis 3519; test: Antibacterial activity (MIC), agar dilution method; format: cell-based; details: unit assumed
Description: as §1

[22] = tested on: Streptococcus agalactiae CMX 508; test: Antibacterial activity (MIC), agar dilution method; format: cell-based; details: unit assumed
Description: as §1

[23] = tested on: Streptococcus bovis A5169; test: Antibacterial activity (MIC), agar dilution method; format: cell-based; details: unit assumed
Description: as §1

[24] = tested on: Streptococcus pyogenes 2548 INDUC; test: Antibacterial activity (MIC), agar dilution method; format: cell-based; details: unit assumed
Description: as §1

[25] = tested on: Streptococcus pyogenes 930 CONST; test: Antibacterial activity (MIC), agar dilution method; format: cell-based; details: unit assumed
Description: as §1

[26] = tested on: Streptococcus pyogenes EES61; test: Antibacterial activity (MIC), agar dilution method; format: cell-based; details: unit assumed
Description: as §1

[27] = tested on: smooth muscle strips isolated from rabbit small intestine; test: Induction of in vitro rabbit duodenal smooth muscle contraction; details: for EC50: Oryctolagus cuniculus, rabbit duodenum longitudinal muscle, 37° C., pH 7.5, read-out: pED50 (negative logarithm of the concentration producing half of the maximal contraction) (converted); for Relative Potency: relative to erythromycin A = 1.0
Description: The compounds of the present invention were tested in vitro for their ability to induce contraction of smooth muscle strips isolated from rabbit small intestine using the following procedure:
Rabbits were sacrificed and 15 cm of duodenum was rapidly removed and placed in ice-cold modified Ringers solution (120 mM sodium chloride, 25 mM sodium bicarbonate, 4.7 mM potassium chloride, 1.25 mM calcium chloride, 1.20 mM magnesium sulfate and 5.6 mM glucose). The longitudinal muscle layer was separated from the circular muscle by blunt dissection and cut into strips of 10×20 mm. Double-folded strips were vertically suspended between two hooks in 10 mL tissue baths with a mechanical preload of 1 g. The upper hook was connected to an […] force transducer, and its displacement was recorded on a Grass polygraph. The tissue baths contained modified Ringers solution at 37° C. and were continuously gassed with 95% oxygen/5% carbon dioxide in order to maintain the pH at 7.5.
After a stabilization period of at least 60 minutes, a contractility dose-response series was performed by adding increasing final concentrations of methacholine (10^-7 M, 10^-6 M and 10^-5 M) in volumes of 100 μL. The bath solutions were replaced at least three times between doses.
After the methacholine dose-response series was completed, a test compound dose response curve was initiated by the same procedure used for the methacholine dose-response series, with at least five concentrations of test compound within the range of 10^-10 M to 10^-4 M. The tissues were washed repeatedly between doses, and the studies were completed by recording the contractile response to 10^-5 M methacholine to ascertain integrity of the muscle preparation. Contractile responses were expressed as percent of maximal contraction. The concentration of test compound which produces half of the maximal contraction (ED50 value) and the negative logarithm of the ED50 value (PED50) were estimated from the dose-response curves.

Row | SMILES | MIC [1] [µg/mL] | MIC [2] [µg/mL] | MIC [3] [µg/mL] | MIC (Escherichia coli DC-2) [µg/mL] | MIC (Escherichia coli H560) [µg/mL] | MIC (Escherichia coli JUHL) [µg/mL] | MIC (Escherichia coli KNK 437) [µg/mL] | MIC (Escherichia coli SS) [µg/mL] | MIC [4] [µg/mL] | MIC [6] [µg/mL] | MIC [7] [µg/mL] | MIC [8] [µg/mL] | MIC [9] [µg/mL] | MIC [10] [µg/mL] | MIC [11] [µg/mL] | MIC [12] [µg/mL] | MIC [13] [µg/mL] | MIC (Pseudomonas cepacia 2961) [µg/mL] | MIC [14] [µg/mL] | MIC [15] [µg/mL] | further results
1 | CC[C@H]1OC(=O)[C@H](C)[C@@H](O[C@H]2C[C@@](C)(OC)[C@@H](O)[C@H](C)O2)[C@H](C)[C@@H](O[C@@H]2O[C@H](C)C[C@H](N(C)C)[C@H]2O)[C@](C)(O)C[C@@H](C)C(=O)[C@H](C)[C@@H](O)[C@]1(C)O [Erythromycin] | 6.2 (≈ 8.45 µM) | 100 (≈ 136 µM) | 0.05 (≈ 0.0681 µM) | 50 (≈ 68.1 µM) | 25 (≈ 34.1 µM) | 50 (≈ 68.1 µM) | 50 (≈ 68.1 µM) | 0.2 (≈ 0.273 µM) | 50 (≈ 68.1 µM) | 0.02 (≈ 0.0273 µM) | > 100 | > 100 | 50 (≈ 68.1 µM) | > 100 | 100 (≈ 136 µM) | 3.1 (≈ 4.22 µM) | 100 (≈ 136 µM) | > 100 | > 100 | 0.2 (≈ 0.273 µM) | MIC [5]: 0.1 µg/mL (≈ 0.136 µM); MIC [16]: > 100 µg/mL; MIC [17]: 1.56 µg/mL (≈ 2.13 µM); MIC [18]: 0.1 µg/mL (≈ 0.136 µM); MIC [19]: 0.2 µg/mL (≈ 0.273 µM); MIC [20]: 0.2 µg/mL (≈ 0.273 µM); MIC [21]: 0.2 µg/mL (≈ 0.273 µM); MIC [22]: 0.05 µg/mL (≈ 0.0681 µM); MIC [23]: 0.02 µg/mL (≈ 0.0273 µM); MIC [24]: 6.2 µg/mL (≈ 8.45 µM); MIC [25]: > 100 µg/mL; MIC [26]: 0.05 µg/mL (≈ 0.0681 µM)
2 | CC[C@H]1OC(=O)[C@H](C)[C@@H](O[C@H]2C[C@@](C)(OC)C[C@H](C)O2)[C@H](C)[C@@H](O[C@@H]2O[C@H](C)C[C@H](N(C)CC)[C@H]2O)[C@@]2(C)C[C@@H](C)C(O2)[C@H](C)[C@@H](O)[C@]1(C)O [Example 15, 9-deoxo-3'-N-desmethyl-4",6-dideoxy-6,9-epoxy-3'-N-ethylerythromycin A] | > 100 | > 100 | 50 (≈ 69.8 µM) | > 100 | > 100 | > 100 | > 100 | 100 (≈ 140 µM) | > 100 | 25 (≈ 34.9 µM) | > 100 | > 100 | > 100 | > 100 | > 100 | > 100 | > 100 | > 100 | > 100 | > 100 | EC50 [27]: 23.4 nM; Relative Potency [27]: 60; MIC [5]: 25 µg/mL (≈ 34.9 µM); MIC [16]: > 100 µg/mL; MIC [17]: > 100 µg/mL; MIC [18]: 100 µg/mL (≈ 140 µM); MIC [19]: > 100 µg/mL; MIC [20]: > 100 µg/mL; MIC [21]: 100 µg/mL (≈ 140 µM); MIC [22]: 6.2 µg/mL (≈ 8.66 µM); MIC [23]: 6.2 µg/mL (≈ 8.66 µM); MIC [24]: 50 µg/mL (≈ 69.8 µM); MIC [25]: > 100 µg/mL; MIC [26]: 25 µg/mL (≈ 34.9 µM)
3 | CC[C@H]1OC(=O)[C@H](C)[C@@H](O[C@H]2C[C@@](C)(OC)C[C@H](C)O2)[C@H](C)[C@@H](O[C@@H]2O[C@H](C)C[C@H](N(C)CC)[C@H]2O)[C@@]2(C)CC(C)=C(O2)[C@H](C)[C@@H](O)[C@H]1C [Example 7, 8,9-anhydro-4"-deoxy-3'-N-desmethyl-3'-N-ethylerythromycin B-6,9-hemiketal] | > 100 | > 100 | 50 (≈ 71.6 µM) | > 100 | > 100 | > 100 | > 100 | 100 (≈ 143 µM) | > 100 | 12.5 (≈ 17.9 µM) | > 100 | > 100 | > 100 | > 100 | > 100 | > 100 | > 100 | > 100 | > 100 | > 100 | Endpoint (pED50) could not be obtained, potency in words ([27]; footnote a of Table 2): extremely high potency; Relative Potency [27]: > 8000; MIC [16]: > 100 µg/mL; MIC [17]: 100 µg/mL (≈ 143 µM); MIC [18]: 100 µg/mL (≈ 143 µM); MIC [19]: > 100 µg/mL; MIC [20]: 100 µg/mL (≈ 143 µM); MIC [21]: 100 µg/mL (≈ 143 µM); MIC [22]: 50 µg/mL (≈ 71.6 µM); MIC [23]: 50 µg/mL (≈ 71.6 µM); MIC [24]: 50 µg/mL (≈ 71.6 µM); MIC [25]: > 100 µg/mL; MIC [26]: 50 µg/mL (≈ 71.6 µM)
4 | CC[C@H]1OC(=O)[C@H](C)[C@@H](O[C@H]2C[C@@](C)(OC)C[C@H](C)O2)[C@H](C)[C@@H](O[C@@H]2O[C@H](C)C[C@H](N(C)CC)[C@H]2O)[C@@]2(C)C[C@H](C)C(O2)[C@H](C)[C@@H](O)[C@]1(C)O [Example 11, 9-deoxo-3'-N-desmethyl-4",6-dideoxy-8-epi-3'-N-ethyl-6,9-epoxyerythromycin A] | > 100 | > 100 | 50 (≈ 69.8 µM) | > 100 | > 100 | > 100 | > 100 | > 100 | > 100 | 25 (≈ 34.9 µM) | > 100 | > 100 | > 100 | > 100 | > 100 | > 100 | > 100 | > 100 | > 100 | > 100 | EC50 [27]: 2.88 nM; Relative Potency [27]: 490; MIC [5]: 25 µg/mL (≈ 34.9 µM); MIC [16]: > 100 µg/mL; MIC [17]: 100 µg/mL (≈ 140 µM); MIC [18]: > 100 µg/mL; MIC [19]: > 100 µg/mL; MIC [20]: 100 µg/mL (≈ 140 µM); MIC [21]: 100 µg/mL (≈ 140 µM); MIC [22]: 6.2 µg/mL (≈ 8.66 µM); MIC [23]: 50 µg/mL (≈ 69.8 µM); MIC [24]: 50 µg/mL (≈ 69.8 µM); MIC [25]: 100 µg/mL (≈ 140 µM); MIC [26]: 25 µg/mL (≈ 34.9 µM)
